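Compound exposure: 48 hours, 5 concentrations, 96-well plates. GI50 = concentration required for 50% inhibition of growth. At the TGI there is no net growth.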
Columns and labels:
Assay in all cases: NCI tumour cell line growth inhibition, 48 h
HOP-92 NSCLC = test system: HOP-92 NSCLC
DU-145 prostate = test system: DU-145 prostate
OVCAR-8 ovarian = test system: OVCAR-8 ovarian
MDA-MB-435 = test system: MDA-MB-435
SF-268 CNS = test system: SF-268 CNS
MDA-MB-231 breast = test system: MDA-MB-231 breast
UO-31 renal = test system: UO-31 renal
IGROV1 ovarian = test system: IGROV1 ovarian
SF-295 CNS = test system: SF-295 CNS
HOP-62 NSCLC = test system: HOP-62 NSCLC
EKVX NSCLC = test system: EKVX NSCLC
MCF7 breast = test system: MCF7 breast
HT29 colon = test system: HT29 colon
HL-60(TB) leukemia = test system: HL-60(TB) leukemia
NCI/ADR-RES ovarian = test system: NCI/ADR-RES ovarian
LOX IMVI melanoma = test system: LOX IMVI melanoma
A498 renal = test system: A498 renal
SNB-19 CNS = test system: SNB-19 CNS
U251 CNS = test system: U251 CNS
786-0 renal = test system: 786-0 renal
A549 NSCLC = test system: A549 NSCLC
OVCAR-4 ovarian = test system: OVCAR-4 ovarian
UACC-62 melanoma = test system: UACC-62 melanoma
SN12C renal = test system: SN12C renal
UACC-257 melanoma = test system: UACC-257 melanoma
SW-620 colon = test system: SW-620 colon
SF-539 CNS = test system: SF-539 CNS
RPMI-8226 leukemia = test system: RPMI-8226 leukemia
RXF 393 renal = test system: RXF 393 renal
HCT-15 colon = test system: HCT-15 colon
HCC-2998 colon = test system: HCC-2998 colon
SK-MEL-2 melanoma = test system: SK-MEL-2 melanoma
MALME-3M melanoma = test system: MALME-3M melanoma
NCI-H460 lung = test system: NCI-H460 lung
K-562 leukemia = test system: K-562 leukemia
CAKI-1 renal = test system: CAKI-1 renal
SNB-75 CNS = test system: SNB-75 CNS
M14 melanoma = test system: M14 melanoma
OVCAR-5 ovarian = test system: OVCAR-5 ovarian
OVCAR-3 ovarian = test system: OVCAR-3 ovarian
ACHN renal = test system: ACHN renal
KM12 colon = test system: KM12 colon
SK-OV-3 ovarian = test system: SK-OV-3 ovarian
PC-3 prostate = test system: PC-3 prostate
SK-MEL-28 melanoma = test system: SK-MEL-28 melanoma
CCRF-CEM leukemia = test system: CCRF-CEM leukemia
TK-10 renal = test system: TK-10 renal
T-47D breast = test system: T-47D breast
NCI-H226 lung = test system: NCI-H226 lung
HCT-116 colon = test system: HCT-116 colon
MOLT-4 leukemia = test system: MOLT-4 leukemia
BT-549 breast = test system: BT-549 breast
NCI-H23 lung = test system: NCI-H23 lung
SK-MEL-5 melanoma = test system: SK-MEL-5 melanoma
HS 578T breast = test system: HS 578T breast

Compound: IP(CCCSc1n(Cc2ccc3ccccc3c2)c(-c2ccccc2)c(-c2ccccc2)[n+]1Cc1ccc2ccccc2c1)(c1ccccc1)(c1ccccc1)c1ccccc1
- GI50 (HOP-92 NSCLC): 1.69 µM
- TGI (HOP-92 NSCLC): 6.48 µM
- GI50 (DU-145 prostate): 3.57 µM
- TGI (DU-145 prostate): 23.9 µM
- GI50 (OVCAR-8 ovarian): 5.62 µM
- TGI (OVCAR-8 ovarian): > 100 µM
- GI50 (MDA-MB-435): 2.84 µM
- TGI (MDA-MB-435): 11 µM
- GI50 (SF-268 CNS): 3.42 µM
- TGI (SF-268 CNS): 20.3 µM
- GI50 (MDA-MB-231 breast): 2.81 µM
- TGI (MDA-MB-231 breast): 9.58 µM
- GI50 (UO-31 renal): 5.55 µM
- TGI (UO-31 renal): > 100 µM
- GI50 (IGROV1 ovarian): 2.96 µM
- TGI (IGROV1 ovarian): > 100 µM
- GI50 (SF-295 CNS): 3.3 µM
- TGI (SF-295 CNS): 16.2 µM
- GI50 (HOP-62 NSCLC): 3.3 µM
- TGI (HOP-62 NSCLC): 23.4 µM
- GI50 (EKVX NSCLC): 4.43 µM
- TGI (EKVX NSCLC): 43.1 µM
- GI50 (MCF7 breast): 2.77 µM
- TGI (MCF7 breast): 9 µM
- GI50 (HT29 colon): 2.52 µM
- TGI (HT29 colon): 7.14 µM
- GI50 (HL-60(TB) leukemia): 1.9 µM
- TGI (HL-60(TB) leukemia): 3.86 µM
- GI50 (NCI/ADR-RES ovarian): 17.3 µM
- TGI (NCI/ADR-RES ovarian): > 100 µM
- GI50 (LOX IMVI melanoma): 1.94 µM
- TGI (LOX IMVI melanoma): 4.49 µM
- GI50 (A498 renal): 3.88 µM
- TGI (A498 renal): 29.4 µM
- GI50 (SNB-19 CNS): 2.39 µM
- TGI (SNB-19 CNS): 16.7 µM
- GI50 (U251 CNS): 3.26 µM
- TGI (U251 CNS): > 100 µM
- GI50 (786-0 renal): 5.81 µM
- TGI (786-0 renal): 40.1 µM
- GI50 (A549 NSCLC): 4.49 µM
- TGI (A549 NSCLC): 36.1 µM
- GI50 (OVCAR-4 ovarian): 3.16 µM
- TGI (OVCAR-4 ovarian): 22.5 µM
- GI50 (UACC-62 melanoma): 2.35 µM
- TGI (UACC-62 melanoma): 7.91 µM
- GI50 (SN12C renal): 4.07 µM
- TGI (SN12C renal): 17.4 µM
- GI50 (UACC-257 melanoma): 2.89 µM
- TGI (UACC-257 melanoma): 9.64 µM
- GI50 (SW-620 colon): 3.56 µM
- TGI (SW-620 colon): 21.9 µM
- GI50 (SF-539 CNS): 3.08 µM
- TGI (SF-539 CNS): 9.57 µM
- GI50 (RPMI-8226 leukemia): 2.49 µM
- TGI (RPMI-8226 leukemia): 6.81 µM
- GI50 (RXF 393 renal): 2.8 µM
- TGI (RXF 393 renal): 9.44 µM
- GI50 (HCT-15 colon): 19.6 µM
- TGI (HCT-15 colon): > 100 µM
- GI50 (HCC-2998 colon): 3.74 µM
- TGI (HCC-2998 colon): 16.3 µM
- GI50 (SK-MEL-2 melanoma): 2.05 µM
- TGI (SK-MEL-2 melanoma): 5.41 µM
- GI50 (MALME-3M melanoma): 2.37 µM
- TGI (MALME-3M melanoma): 8.23 µM
- GI50 (NCI-H460 lung): 2.53 µM
- TGI (NCI-H460 lung): 6.25 µM
- GI50 (K-562 leukemia): 3.05 µM
- TGI (K-562 leukemia): 10.4 µM
- GI50 (CAKI-1 renal): 9.96 µM
- TGI (CAKI-1 renal): 31.7 µM
- GI50 (SNB-75 CNS): 2.03 µM
- TGI (SNB-75 CNS): 9.21 µM
- GI50 (M14 melanoma): 3.34 µM
- TGI (M14 melanoma): 23 µM
- GI50 (OVCAR-5 ovarian): 3.59 µM
- TGI (OVCAR-5 ovarian): 17.4 µM
- GI50 (OVCAR-3 ovarian): 2.81 µM
- TGI (OVCAR-3 ovarian): 8.86 µM
- GI50 (ACHN renal): 20.2 µM
- TGI (ACHN renal): 96.4 µM
- GI50 (KM12 colon): 2.45 µM
- TGI (KM12 colon): 6.23 µM
- GI50 (SK-OV-3 ovarian): 3.9 µM
- TGI (SK-OV-3 ovarian): 38.4 µM
- GI50 (PC-3 prostate): 2.84 µM
- TGI (PC-3 prostate): 10.8 µM
- GI50 (SK-MEL-28 melanoma): 3.25 µM
- TGI (SK-MEL-28 melanoma): 15.9 µM
- GI50 (CCRF-CEM leukemia): 3.11 µM
- TGI (CCRF-CEM leukemia): 12 µM
- GI50 (TK-10 renal): 8.12 µM
- TGI (TK-10 renal): 59 µM
- GI50 (T-47D breast): 2.89 µM
- TGI (T-47D breast): 14.1 µM
- GI50 (NCI-H226 lung): 12.2 µM
- TGI (NCI-H226 lung): 98.2 µM
- GI50 (HCT-116 colon): 2.99 µM
- TGI (HCT-116 colon): 10.6 µM
- GI50 (MOLT-4 leukemia): 3.05 µM
- TGI (MOLT-4 leukemia): 11.5 µM
- GI50 (BT-549 breast): 2.6 µM
- TGI (BT-549 breast): 7.25 µM
- GI50 (NCI-H23 lung): 2.34 µM
- TGI (NCI-H23 lung): 7.13 µM
- GI50 (SK-MEL-5 melanoma): 2.42 µM
- TGI (SK-MEL-5 melanoma): 5.91 µM
- GI50 (HS 578T breast): 3.04 µM
- TGI (HS 578T breast): 14.1 µM

— PubChem BioAssay (NCI)
